According to article PMC5025730:

Columns and labels:
[1] = CuAAC macrocyclisation (azide + terminal alkyne to 1,4-triazole); CuI 2 eq, DIPEA 3 eq; settings: THF, 1.0 mM, 66.0 °C
[2] = RuAAC macrocyclisation (azide + terminal alkyne to 1,5-triazole); [Cp*RuCl]4 0.1 eq (more for 30b, 31b); settings: the molecule shown is the open-chain precursor, THF, 1.0 mM, 66.0 °C
[3] = CuAAC macrocyclisation (azide + terminal alkyne to 1,4-triazole); CuI 2 eq, DIPEA 3 eq; yield includes preceding coupling step on crude precursor; settings: the molecule shown is the open-chain precursor, THF, 1.0 mM, 66.0 °C, 2 steps
[4] = RuAAC macrocyclisation (azide + terminal alkyne to 1,5-triazole); [Cp*RuCl]4 0.1 eq (0.2 eq for 28b); yield includes preceding coupling step on crude precursor; settings: the molecule shown is the open-chain precursor, THF, 1.0 mM, 66.0 °C, 2 steps

CN(C)C(=O)[C@@H]1CCCCn2cc(nn2)CN(CC(=O)OCCC(F)(F)C(F)(F)C(F)(F)C(F)(F)C(F)(F)C(F)(F)C(F)(F)C(F)(F)F)C(=O)c2cccc(c2)NC(=O)N1 [6 -> 24a]
ring closure, isolated yield ([1]; from C#CCN(CC(=O)OCCC(F)(F)C(F)(F)C(F)(F)C(F)(F)C(F)(F)C(F)(F)C(F)(F)C(F)(F)F)C(=O)c1cccc(NC(=O)N[C@@H](CCCCN=[N+]=[N-])C(=O)N(C)C)c1, 17-membered ring): 70%

C#CCN(CC(=O)OCCC(F)(F)C(F)(F)C(F)(F)C(F)(F)C(F)(F)C(F)(F)C(F)(F)C(F)(F)F)C(=O)c1cccc(NC(=O)N[C@@H](CCCCN=[N+]=[N-])C(=O)N(C)C)c1 [6 -> 24b]
ring closure, isolated yield ([2]; 16-membered ring, 6.0 h): 33%

O=C1CCc2cccc(c2)NC(=O)NCCc2ccc(cc2)-n2cc(nn2)CN(CC(=O)OCCC(F)(F)C(F)(F)C(F)(F)C(F)(F)C(F)(F)C(F)(F)C(F)(F)C(F)(F)F)C(=O)c2cccc(c2)N1 [13 -> 26a]
ring closure, isolated yield ([1]; from C#CCN(CC(=O)OCCC(F)(F)C(F)(F)C(F)(F)C(F)(F)C(F)(F)C(F)(F)C(F)(F)C(F)(F)F)C(=O)c1cccc(NC(=O)CCc2cccc(NC(=O)NCCc3ccc(N=[N+]=[N-])cc3)c2)c1, 25-membered ring, 36.0 h): 60%

C#CCN(CC(=O)OCCC(F)(F)C(F)(F)C(F)(F)C(F)(F)C(F)(F)C(F)(F)C(F)(F)C(F)(F)F)C(=O)c1cccc(NC(=O)CCc2cccc(NC(=O)NCCc3ccc(N=[N+]=[N-])cc3)c2)c1 [13 -> 26b]
ring closure, isolated yield ([2]; 24-membered ring, 5.0 h): 54%

C#CCN(CC(=O)OCCC(F)(F)C(F)(F)C(F)(F)C(F)(F)C(F)(F)C(F)(F)C(F)(F)C(F)(F)F)C(=O)c1cccc(NC(=O)CCc2cccc(NC(=O)NCCc3ccc(NC(=O)N[C@@H](CCCCN=[N+]=[N-])C(=O)N(C)C)cc3)c2)c1 [14 -> 27a (over two steps from 13)]
ring closure, yield over several steps ([3]; 33-membered ring, 24.0 h): 31%

C#CCN(CC(=O)OCCC(F)(F)C(F)(F)C(F)(F)C(F)(F)C(F)(F)C(F)(F)C(F)(F)C(F)(F)F)C(=O)c1cccc(NC(=O)CCc2cccc(NC(=O)NCCc3ccc(NC(=O)N[C@@H](CCCCN=[N+]=[N-])C(=O)N(C)C)cc3)c2)c1 [14 -> 27b (over two steps from 13)]
ring closure, yield over several steps ([4]; 32-membered ring, 24.0 h): 12%

C#CCN(CC(=O)OCCC(F)(F)C(F)(F)C(F)(F)C(F)(F)C(F)(F)C(F)(F)C(F)(F)C(F)(F)F)C(=O)c1cccc(N(C(=O)CCCCCCCN=[N+]=[N-])C(C(=O)NC2CCCCC2)c2ccccc2)c1 (stereo not shown) [17a -> 28a (over two steps from 2)]
ring closure, yield over several steps ([3]; 18-membered ring): 18%

C#CCN(CC(=O)OCCC(F)(F)C(F)(F)C(F)(F)C(F)(F)C(F)(F)C(F)(F)C(F)(F)C(F)(F)F)C(=O)c1cccc(N(C(=O)CCCCCCCN=[N+]=[N-])C(C(=O)NC2CCCCC2)c2ccccc2)c1 (stereo not shown) [17a -> 28b (over two steps from 2)]
ring closure, yield over several steps ([4]; 17-membered ring, 48.0 h): 47%

C#CCN(CC(=O)OCCC(F)(F)C(F)(F)C(F)(F)C(F)(F)C(F)(F)C(F)(F)C(F)(F)C(F)(F)F)C(=O)c1cccc(N(C(=O)CCCCCCCN=[N+]=[N-])C(C(=O)NC2CCCCC2)c2ccc(Br)cc2)c1 (stereo not shown) [17b -> 29a (over two steps from 2)]
ring closure, yield over several steps ([3]; 18-membered ring): 24%

C#CCN(CC(=O)OCCC(F)(F)C(F)(F)C(F)(F)C(F)(F)C(F)(F)C(F)(F)C(F)(F)C(F)(F)F)C(=O)c1cccc(N(C(=O)CCCCCCCN=[N+]=[N-])C(C(=O)NC2CCCCC2)c2ccc(Br)cc2)c1 (stereo not shown) [17b -> 29b (over two steps from 2)]
ring closure, yield over several steps ([4]; 17-membered ring): 78%

CO[C@H]1C(=O)N2c3cccc(c3)C(=O)N(CC(=O)OCCC(F)(F)C(F)(F)C(F)(F)C(F)(F)C(F)(F)C(F)(F)C(F)(F)C(F)(F)F)Cc3cn(nn3)CCCCc3cccc(c3)[C@@H]12 [18a -> 30a (cis beta-lactam)]
ring closure, isolated yield ([1]; from C#CCN(CC(=O)OCCC(F)(F)C(F)(F)C(F)(F)C(F)(F)C(F)(F)C(F)(F)C(F)(F)C(F)(F)F)C(=O)c1cccc(N2C(=O)[C@H](OC)[C@@H]2c2cccc(CCCCN=[N+]=[N-])c2)c1, 18-membered ring, 24.0 h): 61%

C#CCN(CC(=O)OCCC(F)(F)C(F)(F)C(F)(F)C(F)(F)C(F)(F)C(F)(F)C(F)(F)C(F)(F)F)C(=O)c1cccc(N2C(=O)[C@H](OC)[C@@H]2c2cccc(CCCCN=[N+]=[N-])c2)c1 [18a -> 30b (cis beta-lactam)]
ring closure, isolated yield ([2]; 17-membered ring, 48.0 h): 33%

CO[C@H]1C(=O)N2c3cccc(c3)C(=O)N(CC(=O)OCCC(F)(F)C(F)(F)C(F)(F)C(F)(F)C(F)(F)C(F)(F)C(F)(F)C(F)(F)F)Cc3cn(nn3)CCCCc3cccc(c3)[C@H]12 [18b -> 31a (trans beta-lactam)]
ring closure, isolated yield ([1]; from C#CCN(CC(=O)OCCC(F)(F)C(F)(F)C(F)(F)C(F)(F)C(F)(F)C(F)(F)C(F)(F)C(F)(F)F)C(=O)c1cccc(N2C(=O)[C@H](OC)[C@H]2c2cccc(CCCCN=[N+]=[N-])c2)c1, 18-membered ring, 24.0 h): 91%

C#CCN(CC(=O)OCCC(F)(F)C(F)(F)C(F)(F)C(F)(F)C(F)(F)C(F)(F)C(F)(F)C(F)(F)F)C(=O)c1cccc(N2C(=O)[C@H](OC)[C@H]2c2cccc(CCCCN=[N+]=[N-])c2)c1 [18b -> 31b (trans beta-lactam)]
ring closure, isolated yield ([2]; 17-membered ring, 96.0 h): 7%

O=C1C=CN2c3cccc(c3)C(=O)N(CC(=O)OCCC(F)(F)C(F)(F)C(F)(F)C(F)(F)C(F)(F)C(F)(F)C(F)(F)C(F)(F)F)Cc3cn(nn3)CCCCc3cccc(c3)C2C1 (stereo not shown) [19 -> 32a]
ring closure, isolated yield ([1]; from C#CCN(CC(=O)OCCC(F)(F)C(F)(F)C(F)(F)C(F)(F)C(F)(F)C(F)(F)C(F)(F)C(F)(F)F)C(=O)c1cccc(N2C=CC(=O)CC2c2cccc(CCCCN=[N+]=[N-])c2)c1, 18-membered ring, 20.0 h): 33%

C#CCN(CC(=O)OCCC(F)(F)C(F)(F)C(F)(F)C(F)(F)C(F)(F)C(F)(F)C(F)(F)C(F)(F)F)C(=O)c1cccc(N2C=CC(=O)CC2c2cccc(CCCCN=[N+]=[N-])c2)c1 (stereo not shown) [19 -> 32b]
ring closure, isolated yield ([2]; 17-membered ring, 48.0 h): 19%

O=C(CN1Cc2cn(nn2)CCCCc2cccc(c2)[C@H]2[C@@H]3CC[C@H](CC3=O)N2c2cccc(c2)C1=O)OCCC(F)(F)C(F)(F)C(F)(F)C(F)(F)C(F)(F)C(F)(F)C(F)(F)C(F)(F)F [20 -> 33 (exo azabicyclooctanone)]
ring closure, isolated yield ([1]; from C#CCN(CC(=O)OCCC(F)(F)C(F)(F)C(F)(F)C(F)(F)C(F)(F)C(F)(F)C(F)(F)C(F)(F)F)C(=O)c1cccc(N2[C@@H]3CC[C@H](C(=O)C3)[C@@H]2c2cccc(CCCCN=[N+]=[N-])c2)c1, 18-membered ring): 65%

O=C(CN1Cc2cn(nn2)CCCCc2cccc(c2)[C@H]2Nc3cc(ccc3[C@H]3OCCC[C@@H]23)C1=O)OCCC(F)(F)C(F)(F)C(F)(F)C(F)(F)C(F)(F)C(F)(F)C(F)(F)C(F)(F)F [21a -> 25a (calculated 0.012/0.021 mmol)]
ring closure, isolated yield ([1]; from C#CCN(CC(=O)OCCC(F)(F)C(F)(F)C(F)(F)C(F)(F)C(F)(F)C(F)(F)C(F)(F)C(F)(F)F)C(=O)c1ccc2c(c1)N[C@H](c1cccc(CCCCN=[N+]=[N-])c1)[C@@H]1CCCO[C@H]21, 18-membered ring): 57%

C#CCN(CC(=O)OCCC(F)(F)C(F)(F)C(F)(F)C(F)(F)C(F)(F)C(F)(F)C(F)(F)C(F)(F)F)C(=O)c1ccc2c(c1)N[C@H](c1cccc(CCCCN=[N+]=[N-])c1)[C@H]1CCCO[C@@H]21 [21b -> 25b (from 21b/21c mixture, over two steps from 2)]
ring closure, yield over several steps ([3]; 18-membered ring): 4%

C#CCN(CC(=O)OCCC(F)(F)C(F)(F)C(F)(F)C(F)(F)C(F)(F)C(F)(F)C(F)(F)C(F)(F)F)C(=O)c1cccc2c1[C@@H]1OCCC[C@@H]1[C@H](c1cccc(CCCCN=[N+]=[N-])c1)N2 [21c -> 25c (from 21b/21c mixture, over two steps from 2)]
ring closure, yield over several steps ([3]; 18-membered ring): 7%

O=C(CN1Cc2cn(nn2)CCCCc2cccc(c2)[C@@H]2Nc3cccc(c3[C@H]3OCCC[C@H]32)C1=O)OCCC(F)(F)C(F)(F)C(F)(F)C(F)(F)C(F)(F)C(F)(F)C(F)(F)C(F)(F)F [21d -> 25d (calculated 0.011/0.017 mmol)]
ring closure, isolated yield ([1]; from C#CCN(CC(=O)OCCC(F)(F)C(F)(F)C(F)(F)C(F)(F)C(F)(F)C(F)(F)C(F)(F)C(F)(F)F)C(=O)c1cccc2c1[C@H]1OCCC[C@H]1[C@H](c1cccc(CCCCN=[N+]=[N-])c1)N2, 18-membered ring): 65%

C#CCN(CC(=O)OCCC(F)(F)C(F)(F)C(F)(F)C(F)(F)C(F)(F)C(F)(F)C(F)(F)C(F)(F)F)C(=O)c1cccc(NC(C#N)c2cccc(CCCCN=[N+]=[N-])c2)c1 (stereo not shown) [22 -> 34 (over two steps from 2)]
ring closure, yield over several steps ([3]; 18-membered ring): 71%
